In US20230129359A1, “MUSCARINIC RECEPTOR 4 ANTAGONISTS AND METHODS OF USE” (Neurocrine Biosciences, Inc., priority 2020, published 2023):

Target: T1, human M4 receptor (Homo sapiens, UniProt P08173)
T1 construct: expressed in transfected cells; host or cells: CHO cells
T1 sequence (P08173 1-479): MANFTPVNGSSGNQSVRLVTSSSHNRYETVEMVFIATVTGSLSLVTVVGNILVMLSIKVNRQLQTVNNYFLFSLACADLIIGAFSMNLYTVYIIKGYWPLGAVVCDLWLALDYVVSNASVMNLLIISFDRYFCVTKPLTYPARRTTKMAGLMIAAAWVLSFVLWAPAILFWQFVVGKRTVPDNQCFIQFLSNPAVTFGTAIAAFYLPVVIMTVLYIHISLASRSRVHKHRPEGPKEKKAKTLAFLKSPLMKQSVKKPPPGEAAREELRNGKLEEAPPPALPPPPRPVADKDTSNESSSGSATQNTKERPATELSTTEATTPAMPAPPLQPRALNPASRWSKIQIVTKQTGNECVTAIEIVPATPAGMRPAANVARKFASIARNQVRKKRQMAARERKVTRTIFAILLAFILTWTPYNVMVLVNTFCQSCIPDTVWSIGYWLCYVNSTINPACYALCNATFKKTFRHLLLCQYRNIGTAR
Experiment: Radioligand ([3H]N-methylscopolamine) binding assay, membranes from CHO cells expressing human M4 receptor
Details: Ki against human M4 receptor; membranes from CHO cells; tritiated N-methylscopolamine 1.5 nM; read-out: K
Procedure: Binding affinity (Ki) for the compounds was measured by inhibition of radioligand binding to membranes from CHO cells expressing human M4 receptor. Membranes were prepared by nitrogen cavitation and differential centrifugation as previously described (Hoare et al., Mol. Pharmacol. 2003 March; 63(3): 751-65). The radioligand employed was tritiated N-methylscopolamine, used at a concentration of 1.5 nM. A dose-response of twelve concentrations of compound was used, ranging from […]. The assay buffer was 50 mM HEPES, 100 mM NaCl, 5 mM MgCl2, 1 mM ethylenediaminetetraacetic acid, pH-adjusted to pH 7.4. Membranes, radioligand and compound were incubated together for 90 minutes at 37° C., in a total volume of 150 μL in a 96-well plate. Receptor-bound radioligand was then collected by harvesting the assay over glass fiber filters pretreated with polyethylenimine to trap the cell membranes, using rapid vacuum filtration. Harvesting and radioactivity counting was conducted as previously described (see, e.g., Hoare et al., Mol. Pharmacol. 2003 63(3):751-65); Erratum at Mol. Pharmacol. 2005 July; 68(1): 260).

Row | Compound | Ki
1 | N#Cc1cnc(N2CC3CC(C2)N3C(=O)OC2CC3(C2)CN(Cc2ccccc2)C3)cn1 [Compound 111, 2-benzyl-2-azaspiro[3.3]heptan-6-yl 3-(5-cyanopyrazin-2-yl)-3,6-diazabicyclo[3.1.1]heptane-6-carboxylate] | 100 to 1000 nM
2 | C[C@H]1CN(C(=O)OC2CC3(C2)CN(Cc2ccccc2)C3)CCN1c1ncc(C#N)cn1 [Compound 119, 2-benzyl-2-azaspiro[3.3]heptan-6-yl (3S)-4-(5-cyanopyrimidin-2-yl)-3-methylpiperazine-1-carboxylate] | 100 to 1000 nM
3 | O=C(OC1CC2(C1)CN(Cc1ccccc1)C2)N1CCN(c2ccc(C(F)(F)F)cn2)CC1 [Compound 121, 2-benzyl-2-azaspiro[3.3]heptan-6-yl 4-[5-(trifluoromethyl)pyridin-2-yl]piperazine-1-carboxylate] | 100 to 1000 nM
4 | C[C@H]1CN(C(=O)OC2CC3(C2)CN(Cc2ccccc2)C3)CCN1c1ncc(C(F)(F)F)cn1 [Compound 123, 2-benzyl-2-azaspiro[3.3]heptan-6-yl (3S)-3-methyl-4-[5-(trifluoromethyl)pyrimidin-2-yl]piperazine-1-carboxylate] | < 10 nM
5 | O=C(OC1CC2(C1)CN(Cc1ccccc1)C2)N1CCN(c2ccc(C(F)(F)F)cc2)CC1 [Compound 125, 2-benzyl-2-azaspiro[3.3]heptan-6-yl 4-[4-(trifluoromethyl)phenyl]pipera-zine-1-carboxylate] | 100 to 1000 nM
6 | N#Cc1cc(C(F)(F)F)ccc1N1CCN(C(=O)OC2CC3(C2)CN(Cc2ccccc2)C3)CC1 [Compound 126, 2-benzyl-2-azaspiro[3.3]heptan-6-yl 4-[2-cyano-4-(trifluoromethyl)phenyl]pipera-zine-1-carboxylate] | 100 to 1000 nM
7 | C[C@@H]1CN(c2ncc(C#N)cn2)C[C@H](C)N1C(=O)OC1CC2(C1)CN(Cc1ccccc1)C2 [Compound 130, 2-Benzyl-2-azaspiro[3.3]heptan-6-yl (2R,6S)-4-(5-cyanopyrimidin-2-yl)-2,6-dimethylpiperazine-1-carboxylate] | 10 to 100 nM
8 | C[C@@H]1CN(c2ncc(C(F)(F)F)cn2)CCN1C(=O)OC1CC2(C1)CN(Cc1ccccc1)C2 [Compound 132, 2-benzyl-2-azaspiro[3.3]heptan-6-yl (2R)-2-methyl-4-[5-(trifluoromethyl)pyrimidin-2-yl]piperazine-1-carboxylate] | < 10 nM
9 | C[C@@H]1CN(c2ncc(C(F)(F)F)cn2)CCN1C(=O)OCC1CC2(C1)CN(Cc1ccccc1)C2 [Compound 133, {2-benzyl-2-azaspiro[3.3]heptan-6-yl}methyl (2R)-2-methyl-4-[5-(trifluoromethyl)pyrimidin-2-yl]piperazine-1-carboxylate] | 10 to 100 nM
10 | C[C@@H]1CN(c2ncc(C(F)(F)F)cn2)[C@H](C)CN1C(=O)OC1CC2(C1)CN(Cc1ccccc1)C2 [Compound 135, 2-benzyl-2-azaspiro[3.3]heptan-6-yl (2R,5R)-2,5-dimethyl-4-[5-(trifluoromethyl)pyrimidin-2-yl]piperazine-1-carboxylate] | 10 to 100 nM
11 | C[C@@H]1CN(c2ncc(C(F)(F)F)cn2)[C@@H](C)CN1C(=O)OC1CC2(C1)CN(Cc1ccccc1)C2 [Compound 136, 2-Benzyl-2-azaspiro[3.3]heptan-6-yl (2R,5S)-2,5-dimethyl-4-[5-(trifluoromethyl)pyrimidin-2-yl]piperazine-1-carboxylate] | < 10 nM
12 | C[C@@H]1CN(c2ncc(C#N)cn2)[C@@H](C)CN1C(=O)OC1CC2(C1)CN(Cc1ccccc1)C2 [Compound 138, 2-benzyl-2-azaspiro[3.3]heptan-6-yl (2R,5S)-4-(5-cyanopyrimidin-2-yl)-2,5-dimethylpiperazine-1-carboxylate] | 10 to 100 nM
13 | C[C@@H]1CN(c2ncc(C(F)(F)F)cn2)C[C@@H](C)N1C(=O)OC1CC2(C1)CN(Cc1ccccc1)C2 [Compound 139, 2-Benzyl-2-azaspiro[3.3]heptan-6-yl (2R,6R)-2,6-dimethyl-4-[5-(trifluoromethyl)pyrimidin-2-yl]piperazine-1-carboxylate] | < 10 nM
14 | C[C@@H]1CN(c2cnc(C(F)(F)F)cn2)C[C@@H](C)N1C(=O)OC1CC2(C1)CN(Cc1ccccc1)C2 [Compound 142, 2-benzyl-2-azaspiro[3.3]heptan-6-yl (2R,6R)-2,6-dimethyl-4-[5-(trifluoromethyl)pyrazin-2-yl]piperazine-1-carboxylate] | 10 to 100 nM
15 | C[C@@H]1CN(c2cnc(C(F)(F)F)cn2)C[C@@H](C)N1C(=O)OCC1CC2(C1)CN(Cc1ccccc1)C2 [Compound 143, {2-benzyl-2-azaspiro[3.3]heptan-6-yl}methyl (2R,6R)-2,6-dimethyl-4-[5-(trifluoromethyl)pyrazin-2-yl]piperazine-1-carboxylate] | 100 to 1000 nM
16 | C[C@@H]1CN(c2ncc(C(F)(F)F)cn2)C[C@@H](C)N1C(=O)OCC1CC2(C1)CN(Cc1ccccc1)C2 [Compound 144, {2-benzyl-2-azaspiro[3.3]heptan-6-yl}methyl (2R,6R)-2,6-dimethyl-4-[5-(trifluoromethyl)pyrimidin-2-yl]piperazine-1-carboxylate] | 10 to 100 nM
17 | C[C@@H]1CN(c2ncc(C(F)(F)F)cn2)C[C@@H](C)N1C(=O)OC1CC2(C1)CN(CCC(C)(C)C)C2 [Compound 145, 2-(3,3-dimethylbutyl)-2-azaspiro[3.3]heptan-6-yl (2R,6R)-2,6-dimethyl-4-[5-(trifluoromethyl)pyrimidin-2-yl]piperazine-1-carboxylate] | 100 to 1000 nM
18 | C[C@@H]1CN(c2ncc(C(F)(F)F)cn2)C[C@@H](C)N1C(=O)OC1CC2(C1)CN(CC(C)(C)C)C2 [Compound 146, 2-(2,2-dimethylpropyl)-2-azaspiro[3.3]heptan-6-yl (2R,6R)-2,6-dimethyl-4-[5-(trifluoromethyl)pyrimidin-2-yl]piperazine-1-carboxylate] | 100 to 1000 nM
19 | C[C@@H]1CN(c2ncc(C(F)(F)F)cn2)C[C@H](C)N1C(=O)OC1CC2(C1)CN(CCC(C)(C)C)C2 [Compound 149, 2-(3,3-dimethylbutyl)-2-azaspiro[3.3]heptan-6-yl (2R,6S)-2,6-dimethyl-4-[5-(trifluoromethyl)pyrimidin-2-yl]piperaizne-1-carboxylate] | 100 to 1000 nM
20 | C[C@@H]1CN(c2ncc(C(F)(F)F)cn2)C[C@H](C)N1C(=O)OC1CC2(C1)CN(CC1CC1(C)C)C2 (stereo partly drawn) [Compound 153, 2-[(2,2-dimethylcyclopropyl)methyl]-2-azaspiro[3.3]heptan-6-yl (2R,6S)-2,6-dimethyl-4-[5-(trifluoromethyl)pyrimidin-2-yl]piperazine-1-carboxylate] | < 10 nM
21 | C[C@@H]1CN(c2ncc(C(F)(F)F)cn2)C[C@H](C)N1C(=O)OC1CC2(C1)CN(CC1CCCCC1)C2 [Compound 154, 2-(cyclohexylmethyl)-2-azaspiro[3.3]heptan-6-yl (2R,6S)-2,6-dimethyl-4-[5-(trifluoromethyl)pyrimidin-2-yl]piperazine-1-carboxylate] | 10 to 100 nM
22 | C[C@@H]1CN(c2ncc(C(F)(F)F)cn2)C[C@H](C)N1C(=O)OC1CC2(C1)CN(CC1CC3C=CC1C3)C2 (stereo partly drawn) [Compound 155, 2-{bicyclo[2.2.1]hept-5-en-2-ylmethyl}-2-azaspiro[3.3]heptan-6-yl (2R,6S)-2,6-dimethyl-4-[5-(trifluoromethyl)pyrimidin-2-yl]piperazine-1-carboxylate] | 10 to 100 nM
